“And” between values parts separate entries of the source, which are not always exact repeats. Equal values may be shown once. Each block holds one compound with its values, some of them ahead of it.
Assays:
fecal bile acids = experiment: Fecal bile acid excretion in ZDF rats after oral 264W94; format: in vivo, ZDF rat; conditions: 0.001-10 mg/kg oral gavage twice a day, 2 weeks
Procedure: (§1) Male Zucker diabetic fatty rats (ZDF/GmiCrl-fa/fa) were purchased from Charles River (Raleigh, N.C.) and housed under controlled conditions (12:12 light-dark cycle, 24° C. and 50% relative humidity) with free access to rodent food (Purina 5008, Harlan Teklad, Indianapolis, Ind.). All rats arrived at seven weeks of age (±3 days). After a one-week acclimation period, rats were anesthetized with isoflurane (Abbott Laboratories, IL) and tail-vein blood samples were collected at 9 am without fasting. Blood glucose levels were measured using a glucometer (Bayer, Leverkusen, Germany). In order to ensure balanced treatment groups, ZDF rats were assigned to six treatment groups based upon baseline glucose: vehicle (0.5% HPMC, 0.1% Tween80) and five doses of 264W94 (0.001, 0.01, 0.1, 1, 10 mg/kg). All treatments were given via oral gavage twice a day and animals were followed for two weeks with blood samples collected from tail vein at the end of each week at 9 am without fasting. Fecal samples were collected for 24 hours during the second week of treatment.
(§2) Non-esterified fatty acids (NEFA), bile acids, and bile acids in fecal extraction were measured using the Olympus AU640 clinical chemistry analyzer (Beckman Coulter, Irving, Tex.).

[1] = system: plasma lipase, plasma amylase; experiment: ZDF rat 3-week study: exocrine pancreas function (plasma lipase, amylase); format: in vivo; conditions: ZDF rats; for Plasma Amylase: Week 3; for Plasma Lipase: Week 3, higher doses
Procedure: (§3) Animals were acclimatized for 5-7 days after arrival.
(§4) Key efficacy, metabolic and liver function parameters were assessed: Total 24 hr fecal and total serum bile acid concentrations; Plasma ALP, ALT, AST, BUN, creatinine; Fasting glucose and insulin concentrations, glucose/insulin ratio, blood percent HbA1c and Oral Glucose Tolerance Test (glucose excursion, insulin, GLP-1); Plasma GLP-1, GLP-2 and FGF21 concentrations.

Hemoglobin A1c (HbA1c) = experiment: ZDF rat 3-week study: baseline-corrected percent HbA1c; format: in vivo; conditions: ZDF rats, twice daily oral gavage
Procedure: as §3, §4

plasma ALP, ASAT, ALAT = experiment: ZDF rat 3-week study: liver function (ALP, ASAT, ALAT); format: in vivo; conditions: ZDF rats, twice daily oral gavage, Week 3
Procedure: as §3, §4

[2] = Pharmacokinetics of [14C]LUM002 after single PO or IV administration to rats; format: in vivo, Sprague Dawley Rat
Procedure: To each rat either a single oral (PO; 20 mg/kg free acid) or a single intravenous (IV; 2 mg/kg free acid) dose of [^14C]LUM002 was administered. For PO and IV administration, the test substance was prepared with the adequate amount of water to reach a solution with a concentration of approximately 4 mg/g (PO) and 1 mg/g (IV). Oral administration was a gavage using a stomach tube and IV administration was a bolus injection into the tail vein. Exact doses administered to animals were calculated according to syringe weights.
The doses of radioactivity actually administered were determined by using standards prior to and after treatment of the animals. Blood—Animals were anaesthetized (Isoflurane) for blood sampling (3 animals/time point) and then euthanized by […]. Blood samples (maximal volume from each animal approx. 8 mL) were withdrawn from the abdominal aorta into containers containing a small amount of lithium heparin. and samples were centrifuged for 2 minutes at 1540 g. Aliquots (100 μL) of blood were used for hematocrit determination. Animals for the control groups (male and/or female) were used as predose animals for sampling of untreated biological samples (blood and plasma or liver, myocardium, kidneys only from male control animals). Plasma—To obtain plasma, blood samples were centrifuged for 10 minutes and stored cooled before final division.
Bioanalytical analysis −50 μL of plasma samples were placed into an 1.5 mL reaction tube. 5 μL methanol was added to each sample. For protein precipitation, 100 μL of the internal standard working solution (100 ng/mL of benzyl-13C6-LUM002 in acetonitrile) and 50 μL acetonitrile were added. In case of double blank samples, pure acetonitrile was added. Tubes were sealed and mixed thoroughly for 10 seconds. The tubes were centrifuged for 5 minutes at ≧3000 g. 50 μL of the clear supernatant was transferred into an autoinjector vial and were diluted with 50 μL deionized water. Analysis of samples was performed by using LC-MS/MS (injection volume 50-75 μL) with a lower limit of quantification in the assay of 1 ng/mL for LUM002.

[3] = system: fecal excretion of [14C]taurocholic acid (TCA); experiment: Fecal excretion of [14C]taurocholic acid in Syrian hamster after LUM002; format: in vivo; conditions: nonfasted Golden Syrian hamsters, oral gavage, 24 h feces
Procedure: To study the effect of LUM002 on fecal excretion of [^14C]taurocholic acid (TCA) in the Syrian hamster in vivo, [^14C]TCA was administered intraperitoneally 1 hour before dosing the test compound. Each animal was dosed with […] [^14C]TCA. LUM002 was dosed by oral gavage (5 mL/kg per administration) in either 5% (v/v) Solutol with 0.5% hydroxyethylcellulose (HEC) or 0.5% HEC alone. The first half of dose of test compound/vehicle was given 1 hour after [^14C]TCA injection, followed by the second half of dose 7 hours after the first dose of test compound/vehicle. Feces were collected for 24 hours after [^14C]TCA administration and aliquots from feces were combusted for determination of [^14C] excretion.
The ED200 (dose which doubles the fecal excretion of [^14C] label vs. control from dose response curve, including 95% Confidence interval) was calculated from a dose response curve.

plasma bile acids = experiment: Plasma bile acid concentrations in ZDF rats, oral gavage twice a day for 2 weeks; format: in vivo, ZDF rat
Procedure: as §1, with “All treatments were given via oral gavage twice a day and animals were followed for two weeks with blood samples collected from tail vein at the end of each week at 9 am without fasting. Fecal samples were collected for 24 hours during the second week of treatment.” left out
as §2
Male ZDF rats (n=4) were administered vehicle, SC-435 (1, 10 or 30 mg/kg) or LUM002 (0.3, 1, 3, 10 or 30 mg/kg) by oral gavage twice a day for 2 weeks. Plasma bile acid levels were determined at the end of the second week. […] Data are expressed as mean values ±SEM.

[4] = Pharmacokinetics of LUM002 single 100 mg oral solution in healthy male subjects; format: in vivo, human
Procedure: Healthy male subjects, from 18 to 45 years of age, were given a single oral solution dose (100 mg in 100 mL) of LUM002 under fasting conditions. Blood samples for the determination of LUM002 plasma concentration were collected predose and 0.5, 1, 2, 3, 4, 5, 6, 8, 10, 12, 16, 24, and 48 hours after treatment administration. Plasma was obtained by centrifugation and […] processed for protein precipitation, centrifuged again to remove the precipitate and the supernatant prepared for LC-MS/MS analysis. LUM002 plasma concentrations were determined using a validated liquid chromatography tandem mass spectrometry (LC-MS/MS) assay with a lower limit of quantification (LLOQ) of 0.1 ng/mL. LUM002 plasma concentrations were used to determine the following pharmacokinetic parameters using standard noncompartmental techniques: Cmax, Tmax, AUCslast, and, if applicable due to the low-absorbable characteristics of LUM002, also AUC, AUC0-24 and t1/2z.

total serum bile acids = experiment: ZDF rat 3-week study: plasma total serum bile acids; format: in vivo; conditions: ZDF rats, twice daily oral gavage, Week 3
Procedure: as §3, §4

GLP-2 = experiment: ZDF rat study: GLP-2 in plasma; format: in vivo; conditions: non-fasted ZDF rats, 2 weeks treatment, higher doses
Procedure: as §3, §4

[5] = system: liver injury after partial bile duct ligation; experiment: Partial bile duct ligation (pBDL) in rats: liver histology and cholangiocyte mitotic figures; format: in vivo, rat; conditions: for Total number of cholangiocytes in 50 fields / Total number of mitotic figures in 50 fields: pBDL rat, 10 mg/kg once daily oral gavage
Procedure: Rats were anesthetized with isoflurane, the common bile duct exposed by midline laparotomy and a short length of PE-10 tubing placed parallel to the bile duct. A ligature of 4-0 silk suture was tied tightly around the duct and tubing after which the tubing was removed resulting in constriction of the duct lumen without complete obstruction SC-435 was administered to the test group by once daily oral gavage (10 mg/kg) starting one day prior to pBDL surgery.
All animals were euthanized on Day 14. The liver was collected from all animals and preserved in 10% formalin. The preserved livers from all animals were processed, embedded in paraffin, sectioned and stained with hematoxylin and eosin (H&E). The resulting slides were evaluated. Microscopic findings, when present, were graded subjectively on a scale of 0 to 4 according to the intensity and extent of change, where 0=finding not present; 1=minimal; 2=mild; 3=moderate and 4=marked. Additionally, quantitation of cholangiocyte (bile duct epithelial cells) mitotic nuclei was accomplished by counting the number of mitotic cells and the total number of cholangiocytes in 50 randomly selected high-powered (40× objective) fields.

SMILES: CCCC[C@]1(CC)CS(=O)(=O)c2cc(OC)c(OC)cc2[C@@H](c2ccccc2)N1 [Compound 264W94]
elevation of fecal bile acid concentrations vs vehicle treated rats (fecal bile acids): up to 6.5 fold

AUCinf ([2]; male rat, IV bolus 2 mg/kg free acid): 0.9 ng·h/mL | plasma exposure, 3 female and 1 male animal out of 72 ([2]; rat, PO 20 mg/kg, 2 or 4 h after administration): 1 to 5 ng/mL | plasma exposure, all other animals ([2]; rat, PO 20 mg/kg, limit of quantitation 1 ng/mL): < 1 ng/mL | dose systemically absorbed ([2]; rats): Less than 2% | t1/2 ([4]; 100 mg oral solution, fasting, individual subject): 3.39 h | dose systemically absorbed ([4]; healthy male subjects, 100 mg): Less than 1%
SMILES: CCCC[C@]1(CC)CS(=O)(=O)c2ccc(N(C)C)cc2[C@@H](c2cccc(NC(=O)N[C@@H]3O[C@H](COS(=O)(=O)[O-])[C@@H](O)[C@H](OCc4ccccc4)[C@H]3O)c2)[C@H]1O.CCO.O.[K+] [LUM002, potassium((2R,3R,4S,5R,6R)-4-benzyloxy-6-{3-[3-((3S,4R,5R)-3-butyl-7-dimethylamino-3-ethyl-4-hydroxy-1,1-dioxo-2,3,4,5-tetrahydro-1H-benzo[b]thiepin-5-yl)-phenyl]-ureido}-3,5-dihydroxy-tetrahydro-pyran-2-ylmethyl)sulphate ethanolate, hydrate]
Plasma Amylase [1]: Neither LUM002 nor SC-435 cause a statistically significant changes | Plasma Lipase [1]: statistically significant reductions | Baseline-corrected Percent Hemoglobin A1c (HbA1c) (Hemoglobin A1c (HbA1c)): significant dose-dependent reductions | Plasma Alkaline Phosphatase (ALP) (plasma ALP, ASAT, ALAT): significant reductions | Plasma Aspartate Aminotransferase (ASAT) (plasma ALP, ASAT, ALAT): statistically significant reduction | effect on fecal excretion of bile acids [3]: significantly increased | Plasma bile acid levels (plasma bile acids; ZDF rats, 0.3, 1, 3, 10 or 30 mg/kg twice a day): decreased | Plasma Total Serum Bile Acids Concentrations (total serum bile acids): statistically significant reductions | GLP-2 in plasma (GLP-2): significant elevations

SMILES: CCCCC1(CCCC)CS(=O)(=O)c2ccc(N(C)C)cc2[C@@H](c2ccc(OCCCC[N+]34CCN(CC3)CC4)cc2)[C@H]1O.CS(=O)(=O)[O-] [SC-435, 1-[4-[4-[(4R,5R)-3,3-dibutyl-7-(dimethylamino)-2,3,4,5-tetrahydro-4-hydroxy-1,1-dioxido-1-benzothiepin-5-yl]phenoxy]butyl]-4-aza-1-azoniabicyclo[2.2.2]octane methanesulfonate salt]
Plasma Amylase [1]: Neither LUM002 nor SC-435 cause a statistically significant changes | Plasma Lipase [1]: statistically significant reductions | Baseline-corrected Percent Hemoglobin A1c (HbA1c) (Hemoglobin A1c (HbA1c)): significant dose-dependent reductions | Plasma Alkaline Phosphatase (ALP) (plasma ALP, ASAT, ALAT): significant reductions | Plasma bile acid levels (plasma bile acids; ZDF rats, 1, 10 or 30 mg/kg twice a day): decreased | Hepatocyte necrosis ([5]; pBDL rat livers, Day 14): not present | bile duct proliferation, mixed inflammatory cell infiltration, spindle cell proliferation vs untreated rat livers ([5]; pBDL rat livers, Day 14): reduced incidence and intensity | hepatic necrosis and inflammatory cell infiltration ([5]; pBDL rat livers, by 14 days): less hepatic necrosis and inflammatory cell infiltration | Total number of cholangiocytes in 50 fields ([5]; Day 14, AVG): 533 | Total number of mitotic figures in 50 fields ([5]; Day 14, AVG): 0 | Total number of mitotic figures in 50 fields ([5]; Day 14, individual rats): 0 | Total number of cholangiocytes in 50 fields ([5]; Day 14, individual rats, methanesulfonate salt, 10 mg/kg): 662 and 404 | mitotic figures in livers ([5]; pBDL rats, 14 days post surgery): No mitotic figures were observed | morphologic features of liver injury associated cholestasis ([5]; partial bile duct ligation, rats): appeared to ameliorate or inhibit | Plasma Total Serum Bile Acids Concentrations (total serum bile acids): statistically significant reductions | GLP-2 in plasma (GLP-2): significant elevations

Reference: patent US20140275090A1, “BILE ACID RECYCLING INHIBITORS FOR TREATMENT OF PRIMARY SCLEROSING CHOLANGITIS AND INFLAMMATORY BOWEL DISEASE” (Lumena Pharmaceuticals, Inc., priority 2013, published 2014)
